Measured values as given in US9540363B2, “Solid oral formulations and crystalline forms of an inhibitor of apoptosis protein” (Novartis AG, priority 2009, dated 2017).

Key:
[1] = Water sorption and desorption (hygroscopicity) of crystalline forms; type: physicochemical; settings: for maximum water uptake: at 25° C. up to 95% RH; for hygroscopicity: crystalline solid form
Description: The crystalline forms of compound of Formula (I), its salts and solvates can be characterized by a number of methods, including but not limited to, Powder X-Ray diffraction (PXRD), simulated powder X-ray patterns (Yin. S.; Scaringe, R. P.; DiMarco, J.; Galella, M. and Gougoutas, J. Z., American Pharmaceutical Review, 2003, 6, 2, 80), Differential scanning calorimetry (DSC) experiments, Solid-state C-13 NMR measurements, (W. L. Earl and D. L. VanderHart, J. Magn. Reson., 1982, 48, 35-54), Raman spectroscopy, Infra-red spectroscopy, Moisture sorption isotherms (VTI—variable temperature isotherms), and hot stage techniques.
(§1) The crystalline forms HA, A, B, C, and D obtained in Examples 11-16 are analyzed by various standard methods: XPRD, DSC, TGA, Microscopy. Water sorption and desorption is also examined.

[2] = Heating of the hemihydrate form (dehydration and form conversion); type: physicochemical; settings: upon heating
Description: Form B can be obtained by heating the hemihydrate Form HA above 100° C. over a period of time to remove the water completely, by equilibrating the hemihydrate Form HA in heptane at 50° C., or by cooling crystallization from methyl isobutyl ketone.
as §1

Row | Compound | maximum water uptake [1] | hygroscopicity [1] | water content ([1]; between 10% relative humidity (RH) and 70% RH) [%] | additional moisture taken up ([1]; from 70% RH to 95% RH) [%] | heating temperature at which the form loses water and converts to Form B [2]
1 | CN[C@@H](C)C(=O)N[C@H](C(=O)N1CCC[C@H]1c1nc(C(=O)c2ccc(F)cc2)cs1)C1CCCCC1 [Form D, (S)—N—((S)-1-cyclohexyl-2-{(S)-2-[4-(4-fluoro-benzoyl)-thiazol-2-yl]-pyrrolidin-1-yl}-2-oxo-ethyl)-2-methylamino-propionamide] | less than 0.5% | slightly hygroscopic |  |  | 
2 | CN[C@@H](C)C(=O)N[C@H](C(=O)N1CCC[C@H]1c1nc(C(=O)c2ccc(F)cc2)cs1)C1CCCCC1 [Form B, (S)—N—((S)-1-cyclohexyl-2-{(S)-2-[4-(4-fluoro-benzoyl)-thiazol-2-yl]-pyrrolidin-1-yl}-2-oxo-ethyl)-2-methylamino-propionamide] | about 0.5% | slightly hygroscopic |  |  | 
3 | CN[C@@H](C)C(=O)N[C@H](C(=O)N1CCC[C@H]1c1nc(C(=O)c2ccc(F)cc2)cs1)C1CCCCC1 [Form A, (S)—N—((S)-1-cyclohexyl-2-{(S)-2-[4-(4-fluoro-benzoyl)-thiazol-2-yl]-pyrrolidin-1-yl}-2-oxo-ethyl)-2-methylamino-propionamide] | about 0.8% | slightly hygroscopic |  |  | 
4 | CN[C@@H](C)C(=O)N[C@H](C(=O)N1CCC[C@H]1c1nc(C(=O)c2ccc(F)cc2)cs1)C1CCCCC1 [Form HA, (S)—N—((S)-1-cyclohexyl-2-{(S)-2-[4-(4-fluoro-benzoyl)-thiazol-2-yl]-pyrrolidin-1-yl}-2-oxo-ethyl)-2-methylamino-propionamide] |  | slightly hygroscopic | ~1.7 | ~0.4 | above 100 °C
5 | CN[C@@H](C)C(=O)N[C@H](C(=O)N1CCC[C@H]1c1nc(C(=O)c2ccc(F)cc2)cs1)C1CCCCC1 [Form C, (S)—N—((S)-1-cyclohexyl-2-{(S)-2-[4-(4-fluoro-benzoyl)-thiazol-2-yl]-pyrrolidin-1-yl}-2-oxo-ethyl)-2-methylamino-propionamide] | less than 0.2% | nonhygroscopic |  |  | 
